Converted amounts (≈) assume the structure as drawn.
Experiments:
[1] = test system: Mycobacterium tuberculosis; assay: Antitubercular activity against isoniazid, rifampin-resistant Mycobacterium tuberculosis by radiometric BACTEC460 method; assay type: functional
[2] = test system: Mycobacterium tuberculosis; assay: Antitubercular activity against isoniazid, rifampin, ethambutol, streptomycin-resistant Mycobacterium tuberculosis by radiometric BACTEC460 method; assay type: functional

Row | Compound | MIC [1] [µg/mL] | MIC [2] [µg/mL]
1 | Cc1ccc(C(OC[C@H](O)CN2CCN(C[C@@H](O)COC(c3ccc(C)cc3)c3ccc(C)cc3)CC2)c2ccc(C)cc2)cc1 | 6.25 (≈ 10 µM) | 6.25 (≈ 10 µM)
2 | Cc1ccc(C(OC[C@@H](O)CN2CCCN(C[C@H](O)COC(c3ccc(C)cc3)c3ccc(C)cc3)CC2)c2ccc(C)cc2)cc1 | 1.56 (≈ 2.45 µM) | 0.78 (≈ 1.22 µM)
3 | Cc1ccc(C(OC[C@H](O)CN2CCCN(C[C@@H](O)COC(c3ccc(C)cc3)c3ccc(C)cc3)CC2)c2ccc(C)cc2)cc1 | 1.56 (≈ 2.45 µM) | 1.56 (≈ 2.45 µM)
4 | CC[C@@H](CO)NCCN[C@@H](CC)CO [ETHAMBUTOL] | 3.13 (≈ 15.3 µM) | > 12.5
